Tests used:
[1] = known chelators; cited from earlier work
[2] = pH-titration at constant ionic strength; format: physicochemical; conditions: pH-titration in both directions
Description: For each compound, pH-titrations in both directions were carried out at constant ionic strength. All compounds were completely […] between pH 7.2 and 7.8 for the DT-series and 7.7 and 8.0 for the TT-series, pointing to the availability of all potential donor electrons derived from carboxyl oxygens--for complex or chelate formation similar to EDTA (pH 8.8) and DTPA (pH 6.7), the two model compounds known for their ability to chelate actinides and some other metals.

[3] = Distribution of 210Pb between water and chloroform after adding chelator; format: physicochemical
Description: In this example the ability of DMS(C8)2, from Example 17, and C12 DMS Et2, from Example 16 to move ^210 Pb between lipid and aqueous phases of chloroform and water mixture was measured. This would be an indicator of the ability of the chelator and the chelate-metal complex to penetrate lipophilic barriers.
^210 Pb was dissolved in water. C12 DMS Et2 and DMS(C8)2 were added and mixed for 10 minutes with chloroform. The solutions were mixed every several hours. The phases separated and the percentage of ^210 Pb found in the chloroform phase as a function of time was determined.

[4] = tested on: red cells; assay: Crenation-hemolysis test in fresh canine blood; format: cell-based; conditions: Ca chelate, 10 and 20 mg, 37° C., 1 hour and 4 hours
Description: Toxicity studies were performed as indicators of early gross toxicity. […] Therefore, the crenation-hemolysis tests were repeated with the highly purified C12 -and C22 -PACAs. Two ml aliquots of fresh canine blood, drawn with a heparinized syringe, were incubated at 37° C. with an equal volume of a 0.1M Tris-buffer containing 10 and 20 mg, respectively, of the Ca chelate of the two compounds whose osmolarity had been adjusted to 270-300 mOsm. After 1 hour and 4 hours of incubation, respectively, blood smears were prepared and examined microscopically and cells were sedimented.

[5] = Weight gain and histology of rats during oral chelon feeding; format: in vivo, Sprague-Dawley rats; conditions: 10 days oral feeding; controls 61.1+8.8 g
Description: In vivo studies of the compounds of the present invention were performed. The effect of oral treatment on rats given an injection of 241Am was studied by a) comparing the reduction of an internal burden of 241Am from rats fed C12 TT or C22 TT with the natural biological retention of ^241 Am under condition of no chelation treatment; b) examination of histologic sections of tissues obtained from treated rats and c) by comparing the relative weight gain of treated rats and controls during the chelon feeding period. The effect of feeding C12 TT or C22 TT on the retention of ^241 Am was tested in 3 groups of 9 rats each. Sprague-Dawley rats (Simonson Labs., Gilroy, Cailf.), aged 60 days, were used in these studies. […]
The first group served as untreated controls, the second and third groups received 50 micro-mole of C12 TT or C22 TT/rat or about 200 micro-mole/kg of body weight, respectively, in their daily ration of 25 g of rodent chow. On days 1 and 7 after injection and on days 3, 6 and 10 of chelation treatment, the total body retention of ^241 Am was measured using a whole body counter. The animals were necropsied after 10 days of oral chelation therapy and the femora, liver, 1 kidney, viscera and carcass with integument were counted for ^241 Am content. […] Whole body retentions as a function of time were evaluated. Terminal organ retentions were measured after necropsy only. […]

[6] = Elimination of intravenously injected 241Am-complexed chelons by whole body counting and excreta; format: in vivo; conditions: intravenous
Description: In this example, animals were injected intravenously with ^241 Am-complexed C12 TT or K11 TT (K= terminally carboxylated alkyl series) and the rates of elimination from the body were determined. This was determined by whole body counting and counting of the excreta, both urine and feces. FIG. 2 illustrates the fraction of total body retention of the labeled chelating agents as a function of time after exposure. […] This example illustrates that modified polyaminocarboxylic acids have different organ targeting properties and different excretion pathways.

[7] = tested on: intestinal mucosa (duodenum and proximal jejunum); assay: Intestinal tied-loop passage of 241Am complexes in situ; format: in vivo, rats; conditions: 241Am complex, 3 hours
Description: (§1) To test the ability of complexed chelons to move across membrane and cellular barriers, an assay has been developed that measures the intestinal passage of the chelons in closed duodenal segments in situ over a 3 hour period. […] Although there were differences in the rate at which some of these compounds moved through this tissue barrier, all were effective in Am removal in vivo as set forth in the following Table 1.
The ability of Am-citrate and ^241 Am-C12 TT to cross the intestinal mucosa in situ was measured using an intestinal tied-loop technique. Rats were anesthetized and a 18-20 cm segment of the duodenum and proximal jejunum was isolated and rinsed with cold saline. The most proximal portion of this segment was 1 cm distal to the pyloric junction. With the stability of the ^241 Am-complex established, known quantities of the corresponding complexes were introduced in vivo directly into the isolated and ligated segment. The animals remained anesthetized to allow for passage of the lipophilic compounds through the intestinal barrier into the body. After 3 hours, the rats were euthanized, the ligated section of the gut was excised and its lumen flushed with saline. Lumen wash, cleaned gut section, combined viscera, liver and the remaining carcass were counted separately. The 241Am found in the various parts was considered as representative of the distribution of the chelon.

[8] = Reduction of 241Am whole body and organ burden by oral chelon administration (Table 2, Example 12); format: in vivo, Sprague-Dawley rats; conditions: 10 days oral treatment, 50 micro-mole/rat/day, vs controls; for % Reduction of 241Am, both femora / % Reduction of 241Am, carcass / % Reduction of 241Am, liver / % Reduction of 241Am, whole body: p <0.001 (C12TT, C22TT); for % Reduction of 241Am, one kidney: p >0.1 (C12TT, C22TT)
Description: ^a) Reduction = 100 - (% of initial activity in treated rats at
death/% of initial activity in controls at death); 9 Rats/Group; 10 Days
In vivo studies of the compounds of the present invention were performed. The effect of oral treatment on rats given an injection of 241Am was studied by a) comparing the reduction of an internal burden of 241Am from rats fed C12 TT or C22 TT with the natural biological retention of ^241 Am under condition of no chelation treatment; b) examination of histologic sections of tissues obtained from treated rats and c) by comparing the relative weight gain of treated rats and controls during the chelon feeding period. The effect of feeding C12 TT or C22 TT on the retention of ^241 Am was tested in 3 groups of 9 rats each. Sprague-Dawley rats (Simonson Labs., Gilroy, Cailf.), aged 60 days, were used in these studies. The animals were housed in groups of 3 or 4 until treatment was initiated. ^241 Am was given via the jugular vein as a single injection in citrate buffer of pH 3.5. One week later, rats were transferred to individual cages and feeding of the chelator was initiated. This delay allowed the nuclide to be incorporated firmly in the target organs, mostly liver and bone.
The first group served as untreated controls, the second and third groups received 50 micro-mole of C12 TT or C22 TT/rat or about 200 micro-mole/kg of body weight, respectively, in their daily ration of 25 g of rodent chow. On days 1 and 7 after injection and on days 3, 6 and 10 of chelation treatment, the total body retention of ^241 Am was measured using a whole body counter. The animals were necropsied after 10 days of oral chelation therapy and the femora, liver, 1 kidney, viscera and carcass with integument were counted for ^241 Am content. The other kidney and a sample of the small and large intestine were prepared for histological evaluation. Whole body retentions as a function of time were evaluated. Terminal organ retentions were measured after necropsy only. The reduction in whole body or organ retention due to oral chelation treatment was expressed as: [formula] both taken at the same time after treatment initiation. Results are shown in Table 2 above, which is incorporated into this Example by reference.

[9] = Effect of 1 week oral feeding of TT-based chelons on total body and liver content of 241Am (Table 1); format: in vivo, rats; design: % Reduction in liver 241Am (Compared with controls): concentration or dose not given beside the values; conditions: for % Reduction in liver 241Am (Compared with controls): 1 week oral feeding, determined at necropsy; for % Reduction in total body 241Am (Before vs after chelon feeding): po, 168 h
Description: as §1
Effect of 1 week feeding of TT-based chelons on total
body and liver content of ^241 Am. Am was allowed to
incorporate for 1 week prior to oral chelon feeding.
Total body counts were taken before and after chelon feeding.
Liver values were determined at necropsy.

[10] = Reduction of 239Pu organ burden by oral administration of C22 TT (Table 5, Example 14); format: in vivo, Sprague-Dawley rats; conditions: 10 days in diet, starting 14 days after Pu, vs untreated
Description: Twelve young adult male rats (Sprague-Dawley rats from Simonsen Labs, Gilroy, Calif.) were given ^239 Pu by intravenous injection. Fourteen days later 6 of the animals were fed C22 TT in the diet while the other 6 animals were not fed the compound and served as controls. The delay in beginning the chelation treatment allowed the nuclide to be incorporated firmly in the target organs. After 10 days of feeding, the animals were sacrificed and the Pu content in 'select tissues was determined by liquid scintillation counting.
*100 × (1Pu in treated animals/Pu in untreated, control animals)

[11] = Solution behaviour / micelle formation of C22 TT; format: physicochemical
[12] = tested on: intestinal tract; conditions: dogs; cited from earlier work
[13] = In vitro Pb binding and lipophilic character of C12 DMSA; format: physicochemical
From the text: As with the PACA's, the chain length could be changed and other functional groups could be added.

Compound: O=C(O)CN(CCN(CC(=O)O)CC(=O)O)CC(=O)O [EDTA, ethylenediaminetetraacetic acid]
- effectiveness in removing lead [1]: effective in removing lead in the blood, but is not effective in removing lead which has penetrated the cells
- pH of complete protonation [2]: 8.8

Compound: CCCCCCCCOC(=O)C(S)C(S)C(=O)OCCCCCCCC (centres unmarked) [DMS(C8)2, dimercaptosuccinic acid dioctyl ester]
- Percentage of aqueous 210Pb found in chloroform phase, 15 min [3]: 32.2%
- Percentage of aqueous 210Pb found in chloroform phase, 16 h [3]: 41.9%

Compound: CCCCCCCCCCCCN(CCN(CCN(CCN(CC(=O)O)CC(=O)O)CC(=O)O)CC(=O)O)CC(=O)O [C12 TT, 1-N-Dodecyl-triethylenetetramine pentaacetic acid]
- appearance of sera / hemolysis [4]: All sera were slightly pink in appearance
- red cell crenation [4]: No red cell crenation was observed
- weight gain [5]: 55.7+11.1 g
- excretion pathway [6]: via the liver, through the bile into the feces
- rate of elimination from the body [6]: less rapidly excreted
- fraction found in carcass [7]: 20%
- fraction found in liver [7]: 3%
- fraction found in lumen and gut section [7]: 73%
- fraction found in viscera [7]: 4%
- % Reduction of 241Am, both femora [8]: 17%
- % Reduction of 241Am, carcass [8]: 20%
- % Reduction of 241Am, liver [8]: 71%
- % Reduction of 241Am, whole body [8]: 29%
- % Reduction of 241Am, one kidney [8]: 24%
- % Reduction in liver 241Am (Compared with controls) [9]: -57.1 ± 0.1%
- % Reduction in total body 241Am (Before vs after chelon feeding) [9]: -46.5 ± 4.0%

Compound: CCCCCCCCCCCCCCCCCCCCCCN(CCN(CCN(CCN(CC(=O)O)CC(=O)O)CC(=O)O)CC(=O)O)CC(=O)O [C22 TT, 1-N-Docosyl-triethylenetetramine pentaacetic acid]
- appearance of sera / hemolysis [4]: All sera were slightly pink in appearance
- red cell crenation [4]: No red cell crenation was observed
- weight gain [5]: 70.2+11.6 g
- % Reduction of 239Pu, liver ([10]; p <0.005): 71.1%
- % Reduction of 239Pu, spleen ([10]; p <0.01): 16.9%
- % Reduction of 239Pu, femora ([10]; p <0.375): 3.5%
- % Reduction of 239Pu, lumbar vertebral bodies ([10]; p <0.375): 8.4%
- % Reduction of 241Am, both femora [8]: 32%
- % Reduction of 241Am, carcass [8]: 36%
- % Reduction of 241Am, liver [8]: 89%
- % Reduction of 241Am, whole body [8]: 44%
- % Reduction of 241Am, one kidney [8]: 26%
- % Reduction in liver 241Am (Compared with controls) [9]: -47.9 ± 9.1%
- % Reduction in total body 241Am (Before vs after chelon feeding) [9]: -45.7 ± 6.1%
- solution clarity / micelle formation [11]: micelle formation

Compound: O=C([O-])CN(CCN(CC(=O)[O-])CC(=O)[O-])CCN(CC(=O)[O-])CC(=O)[O-].[Ca+2].[Na+].[Na+].[Na+] [Ca DTPA]
- toxicity after frequent administration [12]: destruction of the epithelial lining and related structures of the intestinal tract followed by death

Compound: CCCCCCCCCCCCSC(C(=O)O)C(S)C(=O)O (centres unmarked) [C12 DMSA, S-Dodecyl dimercaptosuccinic acid]
- ability to bind Pb in vitro [13]: ability of this molecule to bind Pb is demonstrated in vitro
- partial lipophilic character [13]: partial lipophilic character of this molecule has been established in vitro

Compound: CCCCCCCCCCCCSC(C(=O)OCC)C(S)C(=O)OCC (centres unmarked) [C12 DMS Et2, S-Dodecyl dimercaptosuccinic acid diethyl ester]
- Percentage of aqueous 210Pb found in chloroform phase, 15 min [3]: 36.5%
- Percentage of aqueous 210Pb found in chloroform phase, 16 h [3]: 62.2%

Compound: O=C(O)CN(CCN(CC(=O)O)CC(=O)O)CCN(CC(=O)O)CC(=O)O [DTPA, diethylenetriamine pentaacetic acid]
- pH of complete protonation [2]: 6.7

Compound: CCCCCCCCN(CCN(CCN(CCN(CC(=O)O)CC(=O)O)CC(=O)O)CC(=O)O)CC(=O)O [C8 TT]
- % Reduction in liver 241Am (Compared with controls) [9]: -30.1 ± 10.0%
- % Reduction in total body 241Am (Before vs after chelon feeding) [9]: -39.0 ± 6.3%

Compound: O=C(O)C(S)C(S)C(=O)O (centres unmarked) [DMSA, 2,3dimercaptosuccinic acid]
- effectiveness in removing lead [1]: effective for reducing blood levels of Pb, but has limited effectiveness in removing lead burdens from other organs, such as liver, brain and bone
